Data reported in patent US20180303807A1, “ANDROGEN RECEPTOR LIGANDS” (DUKE UNIVERSITY, priority 2015, published 2018).
Residue numbers refer to the chain shown, from its start.

How the values were obtained:
Format in all cases: cell-based
AR [1] = experiment: Real-time PCR of AR target gene transcription in LNCaP-AR (AR overexpressing) cells, CRPC model; set-up: key to B5 = Relative antagonist activity (plus 0.1 nM R1881) of test compounds (20 μM) in AR overexpressing LNCaP cells (NKX3.1 AR target gene) / B7 = Relative antagonist activity (plus 0.1 nM R1881) of test compounds (20 μM) in AR overexpressing LNCaP cells (PSA AR target gene): a score of 1 indicates higher antagonist efficacy (highly desired activity) than benchmark compound enzalutamide; a score of 2 indicates equal antagonist efficacy to enzalutamide (desirable); a score of 3 indicates antagonist efficacy between enzalutamide and bicalutamide (less desirable activity); a score of 4 indicates antagonist efficacy equal to bicalutamide (liability); a score of 5 indicates antagonist efficacy worse than bicalutamide (liability); key to B4 = Relative agonist activity (no R1881) of test compounds (20 μM) in AR overexpressing LNCaP cells (NKX3.1 AR target gene) / B6 Relative agonist activity (no R1881) of test compounds (20 μM) in AR overexpressing LNCaP cells (PSA AR target gene): a score of 1 indicates less agonism (highly desired activity) than benchmark compound enzalutamide; a score of 2 indicates equal agonism to enzalutamide (desirable); a score of 3 indicates agonism between enzalutamide and bicalutamide (less desirable activity); a score of 4 indicates equal agonism to bicalutamide (liability); a score of 5 indicates higher agonism than bicalutamide (liability); details: for B7 = Relative antagonist activity (plus 0.1 nM R1881) of test compounds (20 μM) in AR overexpressing LNCaP cells (PSA AR target gene): plus 0.1 nM R1881, PSA gene; for B7 = Relative antagonist activity (plus 0.1 nM R1881) of test compounds (20 μM) in AR overexpressing LNCaP cells (PSA AR target gene) / B4 = Relative agonist activity (no R1881) of test compounds (20 μM) in AR overexpressing LNCaP cells (NKX3.1 AR target gene) / B6 Relative agonist activity (no R1881) of test compounds (20 μM) in AR overexpressing LNCaP cells (PSA AR target gene) / B5 = Relative antagonist activity (plus 0.1 nM R1881) of test compounds (20 μM) in AR overexpressing LNCaP cells (NKX3.1 AR target gene): score vs enzalutamide/bicalutamide; for B4 = Relative agonist activity (no R1881) of test compounds (20 μM) in AR overexpressing LNCaP cells (NKX3.1 AR target gene): no R1881, NKX3.1 gene; for B5 = Relative antagonist activity (plus 0.1 nM R1881) of test compounds (20 μM) in AR overexpressing LNCaP cells (NKX3.1 AR target gene): plus 0.1 nM R1881, NKX3.1 gene
Protocol: Real-Time PCR (CRPC model of AR overexpressing prostate cancer cells, Table 2, B4-B7). LNCaP-AR (AR overexpressing cells) cells were seeded in 12-well plates in RPMI 1640 (8% charcoal-stripped fetal calf serum (CFS)). […] AR target gene transcription (PSA, NKX3.1, FKBP5) was assessed by realtime PCR.
(§1) For B4-B7, scoring system is based on the relative AR target gene agonist/antagonist activity of test compounds when compared to benchmark compounds enzalutamide or bicalutamide. […] The lack of agonist activity is desirable for therapies intended to treat CRPC. For B4 and B6, a score of 1 indicates less agonism (highly desired activity) than benchmark compound enzalutamide, a score of 2 indicates equal agonism to enzalutamide (desirable), a score of 3 indicates agonism between enzalutamide and bicalutamide (less desirable activity), a score of 4 indicates equal agonism to bicalutamide (liability), and a score of 5 indicates higher agonism than bicalutamide (liability). For B5 and B7 a score of 1 indicates higher antagonist efficacy (highly desired activity) than benchmark compound enzalutamide, a score of 2 indicates equal antagonist efficacy to enzalutamide (desirable), a score of 3 indicates antagonist efficacy between enzalutamide and bicalutamide (less desirable activity), a score of 4 indicates antagonist efficacy equal to bicalutamide (liability), and a score of 5 indicates antagonist efficacy worse than bicalutamide (liability) For B9, Compounds that degrade AR (greater than 50% degradation at 10 μM) are indicated.

CV1 cells = experiment: Toxicity of test compound in the CV1 reporter gene assay (Renilla-Luc)
Protocol: Reporter Gene Assay (IC50 determination, Table 2, B1-B3). CV1 cells were seeded into 96-well cell culture plates and transfected with Lipofectin. For AR transcriptional assays, the DNA mixture consisted of pcDNA-AR, MMTV-Luc (androgen responsive reporter gene), and Renilla-Luc (for assessing transfection efficiency and toxicity). Following overnight incubation, cells were induced with hormone (0.1 nM R1881 (synthetic AR agonist) plus increasing concentrations of test compound) for 24 hrs. Cells were lysed and luciferase activity was quantified using Dual Luciferase Reagent (DLR). IC50 determination was assessed using GraphPad Prism software.

AR [2] = biological target: T1, AR (Homo sapiens, UniProt P10275); experiment: Reporter gene assay, AR transcriptional (MMTV-Luc) in CV1 cells; details: pcDNA-AR + MMTV-Luc, 0.1 nM R1881 plus test compound, 24 hrs, read-out: B1 = AR transcriptional IC50 (μM) in CV1 cells
T1 construct: expressed in transfected cells; host or cells: CV1 cells
T1 sequence (P10275 1-920): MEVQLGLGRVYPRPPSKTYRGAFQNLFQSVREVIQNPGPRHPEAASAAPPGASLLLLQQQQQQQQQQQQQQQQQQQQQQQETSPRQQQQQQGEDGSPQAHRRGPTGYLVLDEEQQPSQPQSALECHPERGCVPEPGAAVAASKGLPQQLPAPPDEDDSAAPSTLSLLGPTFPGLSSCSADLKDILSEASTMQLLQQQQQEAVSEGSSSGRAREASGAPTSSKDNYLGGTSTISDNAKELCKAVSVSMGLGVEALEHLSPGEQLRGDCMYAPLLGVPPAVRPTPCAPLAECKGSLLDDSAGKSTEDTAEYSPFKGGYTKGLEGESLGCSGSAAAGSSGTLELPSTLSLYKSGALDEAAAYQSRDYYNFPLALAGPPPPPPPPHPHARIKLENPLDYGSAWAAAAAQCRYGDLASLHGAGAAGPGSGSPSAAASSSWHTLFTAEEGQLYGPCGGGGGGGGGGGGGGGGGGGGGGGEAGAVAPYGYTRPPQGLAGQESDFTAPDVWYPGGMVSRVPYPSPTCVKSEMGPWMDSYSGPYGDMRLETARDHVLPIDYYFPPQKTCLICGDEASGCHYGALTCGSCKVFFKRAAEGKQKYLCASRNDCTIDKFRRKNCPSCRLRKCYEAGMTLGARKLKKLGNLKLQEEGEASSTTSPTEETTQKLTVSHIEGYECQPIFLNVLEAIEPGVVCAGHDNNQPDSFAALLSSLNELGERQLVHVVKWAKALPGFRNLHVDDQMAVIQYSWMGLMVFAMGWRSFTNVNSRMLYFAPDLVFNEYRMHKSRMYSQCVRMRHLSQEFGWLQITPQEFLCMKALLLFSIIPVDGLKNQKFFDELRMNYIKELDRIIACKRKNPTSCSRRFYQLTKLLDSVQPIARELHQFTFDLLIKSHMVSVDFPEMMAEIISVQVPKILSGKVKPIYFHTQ
In short: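 CV1 cells transiently co-transfected with human AR, MMTV-Luc reporter and Renilla-Luc (transfection efficiency and toxicity read-out), then stimulated 24 h with 0.1 nM R1881 plus increasing test compound concentrations. Firefly and Renilla luciferase quantified by dual-luciferase assay; IC50 derived from concentration-response.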

AR [3] = biological target: T2, AR (Homo sapiens, UniProt P10275, T878A); experiment: In Cell Western AR degradation assay in LNCaP cells; details: 18 hrs, greater than 50% degradation at 10 μM (method says 20 μM)
T2 construct: endogenous in cells; host or cells: LNCaP cells
T2 sequence (P10275 1-920 T878A): T1 sequence (P10275 1-920) with T878A
Protocol: In Cell Western (AR degradation Assay, Table 2, B10). LNCaP cells were plated in 96-well clear bottom black plates (20K cells/well) in RPMI supplemented with 8% CFS. Following 48 hr incubation, cells were treated with hormone (20 μM test compound) for 18 hrs. Cells were fixed with formaldehyde (3.7%) and permeabilized using PBS (0.1% TRITON X-100). Cells were incubated with anti-AR antibody (N20, 1:2000), washed with PBS (0.1% Tween), and stained with 2nd antibody (Biotium CF770 goat anti-rabbit, 1:2000). AR protein expression was assessed using the LI-COR Odyssey imaging system. DRAQ5 (DNA stain, 1:10,000, Thermo Scientific) was used to normalize AR protein expression.
as §1

IC50 (AR [2])	Compound	B9 = AR degradation in LNCaP cells (In-Cell Western) (AR [3])	other results
0.2 µM	CC1(C)CC(=O)C2=C(C1)Nc1ccc3ncccc3c1C2c1ccc([N+](=O)[O-])cc1 (stereo not drawn) [Compound A2, 9,9-dimethyl-12-(4-nitrophenyl)-8,9,10,12-tetrahydrobenzo[b][4,7]phenanthrolin-11(7H)-one]		B7 = Relative antagonist activity (plus 0.1 nM R1881) of test compounds (20 μM) in AR overexpressing LNCaP cells (PSA AR target gene) (AR [1]): 1; B2 = % Toxicity of test compound (20 μM) (CV1 cells): 0%; B3 = % Toxicity of test compound (60 μM) (CV1 cells): 51%
1.6 µM	CC1(C)CC(=O)C2=C(C1)Nc1ccc3ccccc3c1C2c1ccc(C#N)cc1 (stereo not drawn) [Compound A3]		B4 = Relative agonist activity (no R1881) of test compounds (20 μM) in AR overexpressing LNCaP cells (NKX3.1 AR target gene) (AR [1]): 1; B6 Relative agonist activity (no R1881) of test compounds (20 μM) in AR overexpressing LNCaP cells (PSA AR target gene) (AR [1]): 1; B5 = Relative antagonist activity (plus 0.1 nM R1881) of test compounds (20 μM) in AR overexpressing LNCaP cells (NKX3.1 AR target gene) (AR [1]): 1; B7 = Relative antagonist activity (plus 0.1 nM R1881) of test compounds (20 μM) in AR overexpressing LNCaP cells (PSA AR target gene) (AR [1]): 1; B2 = % Toxicity of test compound (20 μM) (CV1 cells): 0%; B3 = % Toxicity of test compound (60 μM) (CV1 cells): 24%
3.8 µM	CC1(C)CC(=O)C2=C(C1)Nc1ccc3ccccc3c1C2c1ccc(Cl)c([N+](=O)[O-])c1 (stereo not drawn) [Compound A6]		B4 = Relative agonist activity (no R1881) of test compounds (20 μM) in AR overexpressing LNCaP cells (NKX3.1 AR target gene) (AR [1]): 1; B6 Relative agonist activity (no R1881) of test compounds (20 μM) in AR overexpressing LNCaP cells (PSA AR target gene) (AR [1]): 1; B5 = Relative antagonist activity (plus 0.1 nM R1881) of test compounds (20 μM) in AR overexpressing LNCaP cells (NKX3.1 AR target gene) (AR [1]): 1; B7 = Relative antagonist activity (plus 0.1 nM R1881) of test compounds (20 μM) in AR overexpressing LNCaP cells (PSA AR target gene) (AR [1]): 1; B2 = % Toxicity of test compound (20 μM) (CV1 cells): 0%; B3 = % Toxicity of test compound (60 μM) (CV1 cells): 0%
4.7 µM	Cn1ncc2ccc3c(c21)C(c1ccc(Cl)s1)C1=C(CC(C)(C)CC1=O)N3 (stereo not drawn) [Compound A109]	Degrader (Compounds that degrade AR (greater than 50% degradation at 10 μM) are indicated)	
> 10 µM	CC1(C)CC(=O)C2=C(C1)Nc1ccc3cn[nH]c3c1C2c1ccc(Br)s1 (stereo not drawn) [Compound A110]	Degrader (Compounds that degrade AR (greater than 50% degradation at 10 μM) are indicated)	
1.4 µM	CC1(C)CC(=O)C2=C(C1)Nc1ccc3c(c1C2c1ccc(Br)s1)OCO3 (stereo not drawn) [Compound A111]	Degrader (Compounds that degrade AR (greater than 50% degradation at 10 μM) are indicated)	
5.1 µM	Cn1ncc2ccc3c(c21)C(c1ccc(Br)s1)C1=C(CC(C)(C)CC1=O)N3 (stereo not drawn) [Compound A113]	Degrader (Compounds that degrade AR (greater than 50% degradation at 10 μM) are indicated)	
1.1 µM	Cc1ccsc1C1C2=C(CC(C)(C)CC2=O)Nc2ccc3ncccc3c21 (stereo not drawn) [Compound A114]	Degrader (Compounds that degrade AR (greater than 50% degradation at 10 μM) are indicated)	
> 10 µM	Cc1ccsc1C1C2=C(CC(C)(C)CC2=O)Nc2cc(N3CCCC3)ccc21 (stereo not drawn) [Compound A116]	Degrader (Compounds that degrade AR (greater than 50% degradation at 10 μM) are indicated)	
2.3 µM	Cc1ccsc1C1C2=C(CC(C)(C)CC2=O)Nc2ccc3ccccc3c21 (stereo not drawn) [Compound A117]	Degrader (Compounds that degrade AR (greater than 50% degradation at 10 μM) are indicated)	
	CNC(=O)c1ccc(N2C(=S)N(c3ccc(C#N)c(C(F)(F)F)c3)C(=O)C2(C)C)cc1F [Enzalutamide, enzalutamide, reference compound]		agonist activity in AR overexpressing LNCaP cells (model of CRPC) (AR [1]; benchmark compounds, AR overexpressing LNCaP cells): does not possess agonist activity
